For assay [1], the system named is rejected reaction on heterogeneous skin implantation. Description: Heterogeneous skin implantation, donor skin pretreated with Yoshixol solution. The assay is classed as in vivo, rabbit and dog. The source says:
Changes in transplanted skin for 3 months were observed by macroscopically and microscopically, when a piece of skin with entire layer (diameter 3 centimeter meter) at a region of the back of rabbit was transplanted to the region of the back of adult mongrel dog as the entire layer transplantation, and when a piece of skin with entire layer (diameter 3 centimeter meter) at a region of the back of adult mongrel dog was transplanted to the region of the back of rabbit as the entire layer transplantation. Firstly, each piece of skin from rabbit or dog was treated with 5 ml of physiological saline with 10 μl of the test solution for 2 minutes so that each skin piece was transplanted to each recipient by the surgical suture. Two kinds of the test solution were prepared for the above treatment; as control solution, basal solution consists of 2 ml of polyoxyethylene (20) sorbitan monoolate 1 (Wakou Jyunyaku Co.) which is identical to Tween 80 (ICI Ltd.) and 88 ml of physiological saline, and as treated solution, 10 ml of Yoshixol was added in the basal solution. And, 10 μl of Yoshixol was treated directly on the transplanted wound for 3 days after implantation. […] Then, implantated wound of the recipient was cured with a self regenerated skin of each recipient after 3 months. On the other hand, when a piece of transplanted skin is dipped in the Yoshixol solution, the treated skin became to be soft and increases in it's thickness. And, a suture procedure with surgical needle was easily done. […] So that an inflammatory tissue reaction was not also found after 1 month. […] Simultaneously with the above, Yoshixol can inhibit complications of infections on the donor tissues or organs, and can improve an implantation effect. Moreover, by using an entire layer (diameter 3 centimeter meter) of rabbit skin, changes in a piece of the transplanted skin which was sutured to the back of the dog as the recipient were investigated over 3 months after the implantation. […] An outer layer of the transplanted skin was faded 3 month after the implantation likely as to strip a thin membrane.

The next assay has as its system spermatozoa. Description: Inhibitory effect on flagellum motility of spermatozoa. The assay is classed as cell-based, japanese bull. On the procedure: In order to investigate an effect of Yoshixol on a flagellum motility of spermatozoa, the spermatozoa (seed japanese bull ID: Sinmorihide<registration No.Zen-Wa-Kuro1114, lot No.84Y28>) which has been conserved in the liquid nitrogen was thawing at 35° C. After thawing, 1 ml of semen was transferred to Petori-schale (grainer lab. GmHB) and, flagellum motility was observed by a phase contrast microscopy (IMT-2, Olympus Co.) and was recorded by a video film via a collar video camera (CCD-IRIS, Sony Co.) so that wave cycles and speed of the flagellum were analyzed by an original software of dynamic state analyzer. […] However, though a flagellum movement was completely stopped, the rotation of the head which occurs at the centriole (near junction between head and tail) was found during a few 10 seconds. And, a speed of this rotation gradually was decelerated with progress of a time. […] Moreover, from the knowledge that these movements of cells are involved in microfilaments and microtubles which is constricted from the proteins assembly, a morphological change of this spermatozoa due to treatment with Yoshixol was investigated by transmission type (JEM1200, EXII, JEOL, Ltd.) and scanning type (JSM-6000F, JEOL, Ltd.) electron microscopy. The outside of normal flagellum with regular basic structure of 9+2 is enclosed with a cell membrane and, there was the axial filament which structure is related to a movement is observed inside. The axial filament has […] (centrum pair) that exist mainly on the center and nine double tubles that exist in a periphery (circumscription canaliculus). […] But, though morphological aspect as a whole of spermatozoa was not altered by the treatment with Yoshixol, many particles with a size of 10-30 nm on the surface were observed likely to be blowed out, when the surface structure of flagellum was investigated by a magnification. And also, ring formation likely to a doughnut in which region is contributed to the movement was not found and, adhesion of small particles were noticeable (referred FIG. 28). […]

As for `C=C1CC(C)(C)C=CC1=O` [Yoshixol, 4,4-dimethyl-6-methylene-2-cyclohexen-1-one], the “desquamation and deciduation of transplanted skin” value in assay [1] (skin dipped 2 minutes in Yoshixol solution, 10 μl on wound for 3 days, 2 weeks after implantation) is “did not show a desquamation and deciduation”. Further, the “inflammation reaction of transplanted skin” value in assay [1] (skin dipped in Yoshixol solution, 10 μl on wound for 3 days) is recorded as “inhibited”. Moreover, the transplanted wound entry in assay [1] (skin dipped in Yoshixol solution, after 1 month) is given as “cured to a level which could not find a boundary with a skin of recipient”. In the assay on spermatozoa (1 μl of Yoshixol added to 1 ml semen, normal 0.3-1.5 mm per second), the velocity of spermatozoa entry is reported as “zero”. Further, in the assay with spermatozoa (after 1 μl of Yoshixol was added to 1 ml semen), the flagellum movement result is recorded as “immediately inhibited”. In the assay on spermatozoa (electron microscopy after treatment with Yoshixol), the “morphological aspect as a whole of spermatozoa” value is reported as “not altered”.

(Values after patent publication US6710090B2, “Inhibitory or blocking agents of molecular generating and/or inducing functions” (priority 1994, dated 2004).)
